Experiments:
Format in all cases: in vivo
Setaria faberi (SETFA) = experiment: Glasshouse herbicide test, pre- and post-emergence, Setaria faberi; conditions: 250 g/h, evaluated after 13 days; for SETFA POST, percentage damage caused to the plant (five point scale): post-emergence; for SETFA PRE, percentage damage caused to the plant (five point scale): pre-emergence
Experimental: (§1) Seeds of a variety of test species are sown in standard soil in pots (Lolium perenne (LOLPE), Setaria faberi (SETFA), Alopecurus myosuroides (ALOMY), Echinochloa crus-galli (ECHCG), Avena fatua (AVEFA)). After cultivation for one day (pre-emergence) or after 8 days cultivation (post-emergence) under controlled conditions in a glasshouse (at 24/16° C., day/night; 14 hours light; 65% humidity), the plants are sprayed with an aqueous spray solution derived from the formulation of the technical active ingredient in acetone/water (50:50) solution containing 0.5% Tween 20 (polyoxyethelyene sorbitan monolaurate, CAS RN 9005-64-5). Compounds are applied at […]. The test plants are then grown in a glasshouse under controlled conditions in a glasshouse (at 24/16° C., day/night; 14 hours light; 65% humidity) and watered twice daily. After 13 days for pre and post-emergence, the test is evaluated for the percentage damage caused to the plant. The biological activities are shown in the following table on a five point scale (5=80-100%; 4=60-79%; 3=40-59%; 2=20-39%; 1=0-19%).

Avena fatua (AVEFA) = experiment: Glasshouse herbicide test, pre- and post-emergence, Avena fatua; conditions: 250 g/h, evaluated after 13 days; for AVEFA POST, percentage damage caused to the plant (five point scale): post-emergence; for AVEFA PRE, percentage damage caused to the plant (five point scale): pre-emergence
Experimental: as §1

[1] = tested on: Echinochloa crus-galli (ECHCG); experiment: Glasshouse herbicide test, pre- and post-emergence, Echinochloa crus-galli; conditions: 250 g/h, evaluated after 13 days; for ECHCG POST, percentage damage caused to the plant (five point scale): post-emergence; for ECHCG PRE, percentage damage caused to the plant (five point scale): pre-emergence
Experimental: as §1

Lolium perenne (LOLPE) = experiment: Glasshouse herbicide test, pre- and post-emergence, Lolium perenne; conditions: 250 g/h, evaluated after 13 days; for LOLPE POST, percentage damage caused to the plant (five point scale): post-emergence; for LOLPE PRE, percentage damage caused to the plant (five point scale): pre-emergence
Experimental: as §1

[2] = tested on: Alopecurus myosuroides (ALOMY); experiment: Glasshouse herbicide test, pre- and post-emergence, Alopecurus myosuroides; conditions: 250 g/h, evaluated after 13 days; for ALOMY POST, percentage damage caused to the plant (five point scale): post-emergence; for ALOMY PRE, percentage damage caused to the plant (five point scale): pre-emergence
Experimental: as §1

SMILES | SETFA POST, percentage damage caused to the plant (five point scale) (Setaria faberi (SETFA)) | SETFA PRE, percentage damage caused to the plant (five point scale) (Setaria faberi (SETFA)) | AVEFA POST, percentage damage caused to the plant (five point scale) (Avena fatua (AVEFA)) | AVEFA PRE, percentage damage caused to the plant (five point scale) (Avena fatua (AVEFA)) | ECHCG POST, percentage damage caused to the plant (five point scale) [1] | ECHCG PRE, percentage damage caused to the plant (five point scale) [1] | LOLPE POST, percentage damage caused to the plant (five point scale) (Lolium perenne (LOLPE)) | LOLPE PRE, percentage damage caused to the plant (five point scale) (Lolium perenne (LOLPE)) | ALOMY POST, percentage damage caused to the plant (five point scale) [2] | ALOMY PRE, percentage damage caused to the plant (five point scale) [2]
CC#Cc1ccc(C2C(=O)[C@@H]3[C@@H]4O[C@@H](C[C@@H]4COC)[C@@H]3C2=O)c(OC)c1 (stereo in doubt) [Compound 1.19, 8-methoxymethyl-4-[2-methoxy-4-(prop-1-yn-1-yl)phenyl]-10-oxatricyclo[5.2.1.0^2,6]decane-3,5-dione] | 5 (5=80-100%) | 5 (5=80-100%) | 5 (5=80-100%) | 5 (5=80-100%) | 5 (5=80-100%) | 5 (5=80-100%) | 5 (5=80-100%) | 5 (5=80-100%) | 5 (5=80-100%) | 5 (5=80-100%)
CC#Cc1ccc(C2C(=O)[C@@H]3[C@@H]4O[C@@H](C[C@@H]4C4OCCO4)[C@@H]3C2=O)c(OC)c1 (mixture of isomers) [Compound 1.18] | 5 (5=80-100%) | 5 (5=80-100%) | 5 (5=80-100%) | 4 (4=60-79%) | 5 (5=80-100%) | 5 (5=80-100%) | 5 (5=80-100%) | 5 (5=80-100%) | 5 (5=80-100%) | 4 (4=60-79%)
CC#Cc1ccc(C2=C(OC(=O)C(C)C)[C@@H]3[C@H](C2=O)[C@@H]2O[C@H]3C[C@@H]2COC)c(OC)c1 (racemic) [Compound 1.27] | 5 (5=80-100%) | 5 (5=80-100%) | 5 (5=80-100%) | 5 (5=80-100%) | 5 (5=80-100%) | 5 (5=80-100%) | 5 (5=80-100%) | 5 (5=80-100%) | 5 (5=80-100%) | 5 (5=80-100%)
CC#Cc1ccc(C2C(=O)[C@@H]3[C@@H]4O[C@@H](C[C@@H]4OC)[C@@H]3C2=O)c(OC)c1 (mixture of isomers) [Compound 1.25] | 5 (5=80-100%) | 5 (5=80-100%) | 5 (5=80-100%) | 5 (5=80-100%) | 5 (5=80-100%) | 5 (5=80-100%) | 5 (5=80-100%) | 5 (5=80-100%) | 5 (5=80-100%) | 5 (5=80-100%)
CC#Cc1ccc(C2=C(OC(C)=O)[C@@H]3[C@H](C2=O)[C@@H]2O[C@H]3C[C@@H]2COC)c(OC)c1 (racemic) [Compound 1.29] | 5 (5=80-100%) | 5 (5=80-100%) | 5 (5=80-100%) | 5 (5=80-100%) | 5 (5=80-100%) | 5 (5=80-100%) | 5 (5=80-100%) | 5 (5=80-100%) | 5 (5=80-100%) | 5 (5=80-100%)
CC#Cc1ccc(C2C(=O)[C@@H]3[C@@H]4O[C@@H](C[C@H]4COC)[C@@H]3C2=O)c(OC)c1 (mixture of isomers) [Compound 1.15] | 5 (5=80-100%) | 5 (5=80-100%) | 5 (5=80-100%) | 5 (5=80-100%) | 5 (5=80-100%) | 5 (5=80-100%) | 5 (5=80-100%) | 5 (5=80-100%) | 5 (5=80-100%) | 5 (5=80-100%)
CC#Cc1ccc(C2C(=O)[C@H]3[C@@H]4CC[C@@](C)(O4)[C@H]3C2=O)c(OC)c1 (stereo partly shown) [Compound 1.21] | 5 (5=80-100%) | 4 (4=60-79%) | 5 (5=80-100%) | 4 (4=60-79%) | 5 (5=80-100%) | 3 (3=40-59%) | 4 (4=60-79%) | 4 (4=60-79%) | 4 (4=60-79%) | 4 (4=60-79%)
CC#Cc1ccc(C2C(=O)[C@@H]3[C@@H]4O[C@@H](C[C@@H]4COC)[C@@H]3C2=O)c(OC)c1 (mixture of isomers) [Compound 1.9, 8-methoxymethyl-4-[2-methoxy-4-(prop-1-yn-1-yl)phenyl]-10-oxatricyclo[5.2.1.0^2,6]decane-3,5-dione] | 5 (5=80-100%) | 5 (5=80-100%) | 5 (5=80-100%) | 5 (5=80-100%) | 5 (5=80-100%) | 5 (5=80-100%) | 5 (5=80-100%) | 5 (5=80-100%) | 5 (5=80-100%) | 5 (5=80-100%)
CC#Cc1ccc(C2C(=O)[C@@H]3[C@@H]4O[C@@H](C[C@@H]4CO)[C@@H]3C2=O)c(OC)c1 (mixture of isomers) [Compound 1.14] | 5 (5=80-100%) | – | 5 (5=80-100%) | – | 5 (5=80-100%) | – | 4 (4=60-79%) | – | 3 (3=40-59%) | –
CC#Cc1ccc(C2C(=O)[C@@H]3[C@H](C2=O)[C@@]2(C)CC[C@]3(C)O2)c(OC)c1 (stereo partly shown) [Compound 1.11] | 5 (5=80-100%) | 3 (3=40-59%) | 5 (5=80-100%) | 3 (3=40-59%) | 5 (5=80-100%) | 3 (3=40-59%) | 5 (5=80-100%) | 4 (4=60-79%) | 5 (5=80-100%) | 5 (5=80-100%)
CC#Cc1ccc(C2C(=O)[C@@H]3[C@@H]4O[C@@H](C[C@H]4/C=N/OC)[C@@H]3C2=O)c(OC)c1 (mixture of isomers) [Compound 1.17] | 5 (5=80-100%) | 5 (5=80-100%) | 5 (5=80-100%) | 5 (5=80-100%) | 5 (5=80-100%) | 5 (5=80-100%) | 5 (5=80-100%) | 5 (5=80-100%) | 5 (5=80-100%) | 5 (5=80-100%)
CC#Cc1ccc(C2=C(OC(=O)OC)[C@@H]3[C@H](C2=O)[C@@H]2O[C@H]3C[C@@H]2COC)c(OC)c1 (racemic) [Compound 1.28] | 5 (5=80-100%) | 5 (5=80-100%) | 5 (5=80-100%) | 5 (5=80-100%) | 5 (5=80-100%) | 5 (5=80-100%) | 5 (5=80-100%) | 5 (5=80-100%) | 5 (5=80-100%) | 5 (5=80-100%)

From patent US20200113181A1, “HERBICIDAL COMPOUNDS” (SYNGENTA PARTICIPATIONS AG, priority 2016, published 2020)
